# From patent publication US9198433B2, “Substituted benzene fungicides” (E I DU PONT DE NEMOURS AND COMPANY, priority 2007, dated 2015)
# Where two headings read alike, the source gives them in different places. Marks after values point to notes of the source that are not given here.
# Key:
# Format in all cases: in vivo
# Pythium aphanidermatum = assay: Test L: bluegrass pythium blight, preventive spray on bluegrass seedlings, disease rating; conditions: 200 ppm
# From the text: The test compounds were first dissolved in acetone in an amount equal to 3% of the final volume and then suspended at the desired concentration (in ppm) in acetone and purified water (50/50 mix) containing 250 ppm of the surfactant Trem® 014 (polyhydric alcohol esters). The resulting test suspensions were then used in Tests A-L. Spraying a 200 ppm test suspension to the point of run-off on the test plants was the equivalent of an application rate of 500 g/ha. The test suspension was sprayed to the point of run-off on bluegrass seedlings. […] A dash (-) indicates no test results. All results are for 200 ppm except where followed by an “*”, which indicates 40 ppm or “**”, which indicates 50 ppm.
# Fusarium graminearum = conditions: wheat head scab
# [1] = tested on: Puccinia recondita f. sp. tritici; assay: Test B: wheat leaf rust, preventive spray on wheat seedlings, disease rating
# Summary of the method: (§1)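 Disease ratings come from wheat seedlings sprayed preventively to run-off, mostly at 200 ppm, which corresponds to an application rate of 500 g/ha; certain entries used 40 ppm or 50 ppm. The carrier was 50/50 acetone/water with 250 ppm surfactant.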
# Rhizoctonia oryzae = assay: Test I: turf brown patch, preventive spray on creeping bent grass seedlings, disease rating; conditions: 200 ppm
# From the text: The test compounds were first dissolved in acetone in an amount equal to 3% of the final volume and then suspended at the desired concentration (in ppm) in acetone and purified water (50/50 mix) containing 250 ppm of the surfactant Trem® 014 (polyhydric alcohol esters). The resulting test suspensions were then used in Tests A-L. Spraying a 200 ppm test suspension to the point of run-off on the test plants was the equivalent of an application rate of 500 g/ha. The test suspension was sprayed to the point of run-off on creeping bent grass seedlings. […] A dash (-) indicates no test results. All results are for 200 ppm except where followed by an “*”, which indicates 40 ppm or “**”, which indicates 50 ppm.
# Alternaria solani = assay: Test H: tomato early blight, preventive spray on tomato seedlings, disease rating
# Summary of the method: (§2)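 Tomato seedlings sprayed to run-off, as a preventive treatment, with compound suspended in acetone/water (50/50) containing 250 ppm Trem 014 surfactant; 200 ppm equals 500 g/ha. Disease then rated. Values are at 200 ppm unless marked * (40 ppm) or ** (50 ppm).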
# Botrytis cinerea = assay: Test F: tomato Botrytis, preventive spray on tomato seedlings, disease rating; conditions: 200 ppm
# Summary of the method: as §2
# [2] = tested on: Erysiphe graminis f. sp. tritici; assay: Test A: wheat powdery mildew, preventive spray on wheat seedlings, disease rating
# Summary of the method: as §1
# Septoria tritici = assay: Test D: wheat leaf blotch, preventive spray on wheat seedlings, disease rating
# Summary of the method: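 Wheat seedlings sprayed to run-off with compound in acetone/water containing 250 ppm Trem 014 (200 ppm ≈ 500 g/ha; some results at 40 or 50 ppm), inoculated next day with Septoria tritici spores. Held 48 h saturated at 24 °C, then 19 days at 20 °C before disease rating.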
# Phytophthora infestans = conditions: 200 ppm; tomato late blight
# Septoria nodorum = assay: Test C: wheat glume blotch, preventive spray on wheat seedlings, disease rating
# Summary of the method: as §1
# Plasmopara viticola = assay: Test K: grape downy mildew, spray on grape seedlings after inoculation, disease rating; conditions: 200 ppm
# From the text: The test compounds were first dissolved in acetone in an amount equal to 3% of the final volume and then suspended at the desired concentration (in ppm) in acetone and purified water (50/50 mix) containing 250 ppm of the surfactant Trem® 014 (polyhydric alcohol esters). The resulting test suspensions were then used in Tests A-L. Spraying a 200 ppm test suspension to the point of run-off on the test plants was the equivalent of an application rate of 500 g/ha. Grape seedlings were inoculated with a spore suspension of Plasmopara viticola (the causal agent of grape downy mildew) and incubated in a saturated atmosphere at 20° C. for 24 h. After a short drying period, the test suspension was sprayed to the point of run-off on the grape seedlings and then moved to a growth chamber at 20° C. for 6 days, after which the test units were placed back into a saturated atmosphere at 20° C. for 24 h. Upon removal, disease ratings were made. […] A dash (-) indicates no test results. All results are for 200 ppm except where followed by an “*”, which indicates 40 ppm or “**”, which indicates 50 ppm.
Structure (SMILES),"Percentage Disease Control, Test L (Pythium aphanidermatum) [%]","Percentage Disease Control, Test E (Fusarium graminearum; 200 ppm) [%]","Percentage Disease Control, Test B ([1]; 200 ppm) [%]","Percentage Disease Control, Test I (Rhizoctonia oryzae) [%]","Percentage Disease Control, Test H (Alternaria solani; 200 ppm) [%]","Percentage Disease Control, Test F (Botrytis cinerea) [%]","Percentage Disease Control, Test A ([2]; 200 ppm) [%]","Percentage Disease Control, Test D (Septoria tritici; 200 ppm) [%]","Percentage Disease Control, Test J (Phytophthora infestans) [%]","Percentage Disease Control, Test C (Septoria nodorum; 200 ppm) [%]","Percentage Disease Control, Test K (Plasmopara viticola) [%]","Percentage Disease Control, Test B ([1]; 40 ppm (*))","Percentage Disease Control, Test D (Septoria tritici; 40 ppm (*))","Percentage Disease Control, Test C (Septoria nodorum; 40 ppm (*))","Percentage Disease Control, Test E (Fusarium graminearum; 40 ppm (*))","Percentage Disease Control, Test H (Alternaria solani; 40 ppm (*))","Percentage Disease Control, Test A ([2]; 40 ppm (*))"
COC(=O)NCc1cc(-c2ccn(Cc3cnc(Cl)s3)n2)ccc1Cl [Cmpd 25],0,77,96,0,76,37,91,96,0,78,63,,,,,,
COC(=O)NCc1cc(-c2ccn(CC#N)n2)ccc1Cl [Cmpd 26],0,0,73,0,0,0,0,26,60,0,6,,,,,,
CC[Si](C)(C)Cn1ccc(-c2ccc(Cl)c(CNC(=O)OC)c2)n1 [Cmpd 27],0,93,,0,0,0,96,,0,,76,99* %,96* %,94* %,,,
COC(=O)NCc1cc(-c2ccn(C)n2)ccc1Cl [Cmpd 28],0,0,88,0,28,0,54,86,0,0,25,,,,,,
COC(=O)NCc1cc(-c2ccn(-c3ccccc3)n2)ccc1Cl [Cmpd 34],0,,,0,,0,,,0,,78,100* %,100* %,97* %,98* %,90* %,97* %
"COC(=O)NCc1cc(C(C)=NOCC[Si](C)(C)C)ccc1Cl [Compound 1, methyl N-[[2-chloro-5-[1-[[2-(trimethylsilyl)ethoxy]imino]ethyl]phenyl]-methyl]carbamate]",0,100,100,0,0,0,100,,0,100,66,,100* %,,,,
COC(=O)NCc1cc(C(C)=NOC[Si](C)(C)c2ccc(Cl)cc2)ccc1Cl [Compound 5],0,0,100,0,77,0,99,,0,99,23,,100* %,,,,
